# Measurements: US20230303570A1, “KINASE INHIBITORS AND USES THEREOF” (ABM Therapeutics Corporation, priority 2020, published 2023)
# Assays:
# Format in all cases: biochemical
# [1] = molecular target: HPK1 (MAP4K1) (Homo sapiens, UniProt Q92918); assay: HPK1 (MAP4K1) kinase Lantha screen assay
# In short: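 Recombinant MAP4K1 preincubated 10 min with compound (6-point dilution, duplicates) in 50 mM HEPES pH 7.5, 10 mM MgCl2, then reacted with Fluorescein-PKC substrate and ATP for 90 min at room temperature. Antibody detection solution stopped reaction; after 60 min, TR-FRET read at ex 340 nm, em 520/495 nm.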
# [2] = molecular target: c-Kit (Homo sapiens, UniProt P10721); assay: cKit kinase mobility shift assay
# Chain of c-Kit (P10721 26-976): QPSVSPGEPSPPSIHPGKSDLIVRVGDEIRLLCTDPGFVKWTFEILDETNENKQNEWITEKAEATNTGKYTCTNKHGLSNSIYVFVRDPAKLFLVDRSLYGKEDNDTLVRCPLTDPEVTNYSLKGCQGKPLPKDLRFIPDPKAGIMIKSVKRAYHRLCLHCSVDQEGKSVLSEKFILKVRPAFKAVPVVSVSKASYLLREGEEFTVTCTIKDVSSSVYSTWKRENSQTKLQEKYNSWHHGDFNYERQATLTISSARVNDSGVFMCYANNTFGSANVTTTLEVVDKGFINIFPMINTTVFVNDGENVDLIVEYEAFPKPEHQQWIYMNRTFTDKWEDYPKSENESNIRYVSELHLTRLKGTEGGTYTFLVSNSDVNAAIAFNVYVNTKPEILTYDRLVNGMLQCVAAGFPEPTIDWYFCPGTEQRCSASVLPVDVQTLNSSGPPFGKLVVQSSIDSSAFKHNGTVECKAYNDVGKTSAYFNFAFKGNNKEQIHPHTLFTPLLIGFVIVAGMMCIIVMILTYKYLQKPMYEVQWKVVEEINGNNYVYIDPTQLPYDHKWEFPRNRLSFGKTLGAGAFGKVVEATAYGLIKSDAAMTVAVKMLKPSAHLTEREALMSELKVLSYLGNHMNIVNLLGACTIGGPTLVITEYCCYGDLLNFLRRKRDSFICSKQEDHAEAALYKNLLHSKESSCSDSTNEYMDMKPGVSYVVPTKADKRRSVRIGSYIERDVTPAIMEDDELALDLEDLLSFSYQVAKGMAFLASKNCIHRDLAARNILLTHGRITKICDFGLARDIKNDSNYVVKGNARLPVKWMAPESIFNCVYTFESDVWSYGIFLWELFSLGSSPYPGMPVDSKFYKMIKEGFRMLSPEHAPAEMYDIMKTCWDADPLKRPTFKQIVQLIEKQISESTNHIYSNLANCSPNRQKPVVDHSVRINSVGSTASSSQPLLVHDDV
# Experimental: The effect of the compounds on the activity of cKit, RET and AXL kinases were assessed by Mobility shift assay. • 1. 1× kinase base buffer and stop buffer for testing kinases were prepared • 1-1) 1× Kinase base buffer (50 mM HEPES, pH 7.5, 0.01% Triton X-100) • 1-2) Stop buffer (100 mM HEPES, pH 7.5, 0.015% Brij-35, 0.2% Coating Reagent #3, 50 mM EDTA) • 2. Compound and assay plate preparation: the compound was diluted to 50× of the final desired highest inhibitor concentration in reaction by 100% DMSO. 100 μl of this compound dilution was transferred to a well in a 96-well plate. For example, if the highest desired concentration was 5 μM, then 250 μM of compound DMSO solution was prepared in this step. For all compounds, the compound was serially diluted by transferring 10 μl to 70 μl of 100 DMSO in the next well and so forth for a total of 5 concentrations. 100 μl of 100% DMSO was added to two empty wells for no compound control and no enzyme control in the same 96-well plate. The plate was labeled as source plate. The intermediate plate was prepared by transferring 10 μl of compound from source plate to a new 96-well plate as the intermediate plate, adding 90 μl of 1× kinase buffer to each well of the intermediate plate, mixing the compounds in intermediate plate for 10 min on shaker. 5 μl of each well from the 96-well intermediate plate were transferred to a 384-well plate in duplicates. For example, A1 of the 96-well plate was transferred to A1 and A2 of the 384-well plate. A2 of the 96-well plate was transferred to A3 and A4 of the 384-well plate, and so on. • 4. Kinase reaction: The assay plate already contained 5 μl of compound in 10% DMSO. A 2.5× enzyme solution was prepared by adding kinases (cKit, RET, or AXL) and DTT in 1× kinase base buffer. 2.5× enzyme solution was transferred to the assay plate (by adding 10 μl of 2.5× enzyme solution to each well of the 384-well assay plate). The plate was incubated at room temperature for 10 min. 2.5× peptide solution was prepared by adding FAM-labeled peptide, ATP, MgCl2 in the 1× kinase base buffer. 2.5× peptide solution was added to the assay plate by adding 10 μl of 2.5× peptide solution to each well of the 384-well assay plate. The plate was incubated at 28° C. for the specified period of time. 25 μl of stop buffer was added to stop reaction. Data was collected on Caliper.
# [3] = molecular target: PAK1 (Homo sapiens, UniProt Q13153); assay: In vitro kinase assay, PAK1 (Caliper EZ Reader conversion); parameters: purchased Carna Biosciences
# Chain of PAK1 (Q13153 whole entry): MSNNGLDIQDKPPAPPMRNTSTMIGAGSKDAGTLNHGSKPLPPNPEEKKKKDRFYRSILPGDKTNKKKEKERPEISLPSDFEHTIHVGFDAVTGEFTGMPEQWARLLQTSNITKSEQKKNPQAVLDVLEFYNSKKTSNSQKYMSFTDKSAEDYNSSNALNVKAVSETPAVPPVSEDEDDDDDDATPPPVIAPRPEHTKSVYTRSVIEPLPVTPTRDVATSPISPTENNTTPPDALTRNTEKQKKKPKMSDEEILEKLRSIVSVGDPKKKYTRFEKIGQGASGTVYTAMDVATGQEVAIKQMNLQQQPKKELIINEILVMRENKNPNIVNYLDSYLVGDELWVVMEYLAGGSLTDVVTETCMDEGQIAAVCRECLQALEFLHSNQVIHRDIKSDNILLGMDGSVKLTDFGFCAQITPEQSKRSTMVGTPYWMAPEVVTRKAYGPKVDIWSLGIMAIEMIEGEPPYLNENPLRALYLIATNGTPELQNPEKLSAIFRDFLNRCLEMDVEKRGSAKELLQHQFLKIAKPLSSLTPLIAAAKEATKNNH
# In short: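 Human PAK1 was preincubated with compound (6 concentrations, 4-fold dilutions) for 10 min at room temperature, then reacted with substrate mix for 30 and 60 min. Substrate conversion was read by Caliper mobility shift. IC50 was fitted by variable-slope log(inhibitor)–response, normalised to FRAX597 and buffer controls.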
# Chain of HPK1 (MAP4K1) (Q92918 whole entry, species assumed): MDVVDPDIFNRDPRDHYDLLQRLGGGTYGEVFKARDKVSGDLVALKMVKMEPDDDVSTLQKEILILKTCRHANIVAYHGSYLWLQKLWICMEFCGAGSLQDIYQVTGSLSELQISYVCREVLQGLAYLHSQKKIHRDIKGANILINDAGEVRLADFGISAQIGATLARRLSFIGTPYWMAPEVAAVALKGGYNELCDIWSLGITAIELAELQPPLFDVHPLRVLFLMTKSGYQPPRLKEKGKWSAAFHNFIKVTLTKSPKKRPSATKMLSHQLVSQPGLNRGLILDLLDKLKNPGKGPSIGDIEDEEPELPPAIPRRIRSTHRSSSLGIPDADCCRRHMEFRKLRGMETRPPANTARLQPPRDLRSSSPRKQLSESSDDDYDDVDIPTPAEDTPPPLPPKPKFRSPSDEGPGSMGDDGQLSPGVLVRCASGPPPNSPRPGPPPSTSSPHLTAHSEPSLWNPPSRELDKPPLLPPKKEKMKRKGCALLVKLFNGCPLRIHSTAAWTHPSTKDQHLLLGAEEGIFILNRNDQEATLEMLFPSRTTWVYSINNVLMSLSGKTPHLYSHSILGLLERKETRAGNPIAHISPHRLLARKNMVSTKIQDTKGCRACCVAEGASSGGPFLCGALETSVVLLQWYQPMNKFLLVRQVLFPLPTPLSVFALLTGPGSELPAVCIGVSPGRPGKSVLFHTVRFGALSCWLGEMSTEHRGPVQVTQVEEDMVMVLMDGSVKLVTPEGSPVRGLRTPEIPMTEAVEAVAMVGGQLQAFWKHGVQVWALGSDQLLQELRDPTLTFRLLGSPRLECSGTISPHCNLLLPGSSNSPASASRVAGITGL
SMILES,IC50 [1] [µM],IC50 [2] [µM],IC50 [3] [µM]
"Cc1ccc(NC(=O)c2cc(C(F)(F)F)ccn2)cc1C1=Cc2cnc(Nc3cnn(C)c3)nc2N2CCN=C12 [Compound 195, N-(4-methyl-3-(2-((1-methyl-1H-pyrazol-4-yl)amino)-8,9-dihydroimidazo[1′,2′:1,6]pyrido[2,3-d]pyrimidin-6-yl)phenyl)-4-(trifluoromethyl)picolinamide]",< 0.1,< 0.1,
"CNc1ncc2c(n1)N1CCN=C1C(c1cc(NC(=O)NCCC(C)(C)C)c(F)cc1C)=C2 [Compound 317, 1-(3,3-dimethylbutyl)-3-(2-fluoro-4-methyl-5-(2-(methylamino)-8,9-dihydroimidazo[1′,2′:1,6]pyrido[2,3-d]pyrimidin-6-yl)phenyl)urea]",0.1 to 10,< 0.1,
"O=C(Nc1ccccc1)Nc1cc(C2=Cc3cnc(NC4COC4)nc3N3CCN=C23)c(Br)cc1F [Compound 328, 1-(4-bromo-2-fluoro-5-(2-(oxetan-3-ylamino)-8,9-dihydroimidazo[1′,2′:1,6]pyrido[2,3-d]pyrimidin-6-yl)phenyl)-3-phenylurea]",,< 0.1,
"CNc1ncc2c(n1)N1CCN=C1C(c1cc(NC(=O)Nc3ccccc3F)c(Cl)cc1C)=C2 [Compound 334, 1-(2-chloro-4-methyl-5-(2-(methylamino)-8,9-dihydroimidazo[1′,2′:1,6]pyrido[2,3-d]pyrimidin-6-yl)phenyl)-3-(2-fluorophenyl)urea]",,< 0.1,
"Cn1cc(Nc2ncc3c(n2)N2CCN=C2C(c2ccc(Cl)cc2Cl)=C3)cn1 [Compound 102, 6-(2,4-dichlorophenyl)-N-(1-methyl-1H-pyrazol-4-yl)-8,9-dihydroimidazo[1′,2′:1,6]pyrido[2,3-d]pyrimidin-2-amine]",,< 0.1,
"CN1CCN(c2ccc(Nc3ncc4c(n3)N3CCN=C3C(c3ccccc3Cl)=C4)cn2)CC1 [Compound 92, 6-(2-chlorophenyl)-N-(6-(4-methylpiperazin-1-yl)pyridin-3-yl)-8,9-dihydroimidazo[1′,2′:1,6]pyrido[2,3-d]pyrimidin-2-amine]",,0.1 to 10,0.1 to 10
"CNc1ncc2c(n1)N1CCN=C1C(c1cc(NC(=O)NCCC(F)(F)F)c(F)cc1C)=C2 [Compound 316, 1-(2-fluoro-4-methyl-5-(2-(methylamino)-8,9-dihydroimidazo[1′,2′:1,6]pyrido[2,3-d]pyrimidin-6-yl)phenyl)-3-(3,3,3-trifluoropropyl)urea]",> 10,0.1 to 10,
"CNc1ncc2c(n1)N1CCN=C1C(c1cc(NC(=O)Nc3ccccc3Cl)c(F)cc1C)=C2 [Compound 331, 1-(2-chlorophenyl)-3-(2-fluoro-4-methyl-5-(2-(methylamino)-8,9-dihydroimidazo[1′,2′:1,6]pyrido[2,3-d]pyrimidin-6-yl)phenyl)urea]",0.1 to 10,< 0.1,
"Cc1ccc(NC(=O)c2cc(C(F)(F)F)ccn2)cc1C1=Cc2cnc(Nc3cccc(CO)c3)nc2N2CCN=C12 [Compound 229, N-(3-(2-((3-(hydroxymethyl)phenyl)amino)-8,9-dihydroimidazo[1′,2′:1,6]pyrido[2,3-d]pyrimidin-6-yl)-4-methylphenyl)-4-(trifluoromethyl)picolinamide]",< 0.1,< 0.1,
"CNc1ncc2c(n1)N1CCN=C1C(Oc1ccc(NC(=O)Nc3ccc(Cl)c(C(F)(F)F)c3)cc1)=C2 [Compound 313, 1-(4-chloro-3-(trifluoromethyl)phenyl)-3-(4-((2-(methylamino)-8,9-dihydroimidazo[1′,2′:1,6]pyrido[2,3-d]pyrimidin-6-yl)oxy)phenyl)urea]",,0.1 to 10,
